Some test systems named below: PC-3 prostate; SF-295 CNS; NCI/ADR-RES ovarian; NCI-H226 lung; UACC-257 melanoma; KM12 colon; MOLT-4 leukemia; SNB-75 CNS; HCT-116 colon; CAKI-1 renal.
Common to all, as to assay: NCI-60 cell line screen, 48 h

This is an account of results in PubChem BioAssay (NCI).

Molecules are shown by their SMILES.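 Assay format: 96-well plates, 48-hour exposure. GI50: concentration for 50% inhibition of growth. Definition used: TGI = concentration required for complete inhibition of growth.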 Where only a bound is given, the exact number is not on record here.

As for `COc1ccc(/C=C/C(=O)c2ccc(NC(=O)CSc3nnc(-c4cc(OC)c(OC)c(OC)c4)o3)cc2)cc1`, the GI50 in the assay on PC-3 prostate is 1.75 µM; with SF-295 CNS it was 1.77 µM; with NCI/ADR-RES ovarian it was 2.42 µM; in the assay with NCI-H226 lung, 2.67 µM; in the assay on UACC-257 melanoma it was 2.16 µM; in the assay with KM12 colon, 1.77 µM. Moreover, the GI50 was 2.05 µM with MOLT-4 leukemia and 1.47 µM with SNB-75 CNS. Besides, the TGI was determined as 3.3 µM in the assay on PC-3 prostate; 3.35 µM in the assay on SF-295 CNS; 7.03 µM with NCI/ADR-RES ovarian; 5.69 µM with NCI-H226 lung; 4.69 µM with UACC-257 melanoma; 3.4 µM in the assay with KM12 colon. In addition, the values for the TGI in the assay on MOLT-4 leukemia and in the assay on SNB-75 CNS were 5.27 µM and 3.15 µM, respectively.
Take `CCC1=C[C@H]2CN(CCc3c([nH]c4ccccc34)[C@@](C(=O)OC)(c3cc4c(cc3OC)N(C)[C@H]3[C@@](O)(C(=O)OC)[C@H](OC(C)=O)[C@]5(CC)[C@@H]6C[C@@H]6CN6CC[C@]43[C@@H]65)C2)C1`: the GI50 is 0.0178 µM in the assay with PC-3 prostate; 0.0142 µM in the assay on SF-295 CNS; 0.161 µM in the assay on NCI/ADR-RES ovarian; 2.65 µM with NCI-H226 lung; 3.42 µM with UACC-257 melanoma; 0.0313 µM in the assay with KM12 colon. The GI50 in the assay with MOLT-4 leukemia was 0.0737 µM; with SNB-75 CNS, 0.595 µM; in the assay with HCT-116 colon it was 0.0185 µM. The TGI worked out at 4.24 µM in the assay on PC-3 prostate; 3.15 µM in the assay with SF-295 CNS; 1.42 µM in the assay on NCI/ADR-RES ovarian; 10.3 µM with NCI-H226 lung; 7.33 µM in the assay on UACC-257 melanoma; 3.8 µM in the assay on KM12 colon. In addition, the TGI in the assay on MOLT-4 leukemia is more than 25 µM; with SNB-75 CNS, more than 25 µM; in the assay on HCT-116 colon, 2.61 µM.
Regarding `C#CCOc1c(OC)cc(C(=O)/C(C)=C/c2cccc(N=[N+]=[N-])c2)cc1OC`, the GI50 in the assay on PC-3 prostate was 0.132 µM; in the assay on SF-295 CNS, 0.122 µM; in the assay with NCI/ADR-RES ovarian, 0.119 µM; in the assay with NCI-H226 lung, 15 µM; in the assay with CAKI-1 renal it was 0.247 µM; in the assay on KM12 colon, 0.0845 µM. For the same compound, the GI50 in the assay with MOLT-4 leukemia is 0.362 µM; in the assay with HCT-116 colon, 0.0468 µM. Further, the TGI with PC-3 prostate, with SF-295 CNS, in the assay with NCI/ADR-RES ovarian, with NCI-H226 lung, with CAKI-1 renal and in the assay with KM12 colon was more than 100 µM throughout. The results for the TGI with MOLT-4 leukemia and in the assay on HCT-116 colon were more than 100 µM and 10.8 µM, respectively.
Turning to `CCOC(=O)C1=C(N)Oc2cc(OC)ccc2C1c1ccc(F)c(F)c1` (stereo not drawn), the GI50 is 2.33 µM in the assay with PC-3 prostate; 1.91 µM in the assay on SF-295 CNS; 0.703 µM in the assay with NCI/ADR-RES ovarian; 12.9 µM with NCI-H226 lung; 11.5 µM in the assay on UACC-257 melanoma; 0.637 µM with KM12 colon. For the same compound, the values for the GI50 in the assay with MOLT-4 leukemia, in the assay on SNB-75 CNS and in the assay with HCT-116 colon were 1.58 µM, 1.64 µM and 1.25 µM, respectively. Besides, the TGI with PC-3 prostate is 15.1 µM; in the assay on SF-295 CNS, 15.5 µM; in the assay with NCI/ADR-RES ovarian, 17 µM; with NCI-H226 lung it was 32.7 µM; in the assay with UACC-257 melanoma, 24 µM; with KM12 colon it was 15.9 µM. Moreover, the TGI in the assay on MOLT-4 leukemia was determined as 22.3 µM; with SNB-75 CNS, 11.1 µM; with HCT-116 colon it was 16.1 µM.
With `O=C(CN/C=C\C(=O)c1cc(Cl)ccc1Cl)c1ccccc1`, the GI50 in the assay on PC-3 prostate is 26 µM; in the assay on SF-295 CNS, 20.4 µM; in the assay on NCI/ADR-RES ovarian, 19.7 µM; in the assay on NCI-H226 lung, 25.5 µM; with UACC-257 melanoma, 24.7 µM; in the assay with CAKI-1 renal it was 26.6 µM. The GI50 is 23.8 µM in the assay on KM12 colon, more than 100 µM in the assay on MOLT-4 leukemia and 21.2 µM in the assay with HCT-116 colon. Also, the TGI in the assay on PC-3 prostate worked out at 67 µM; in the assay with SF-295 CNS, 50.7 µM; with NCI/ADR-RES ovarian it was 41.2 µM; with NCI-H226 lung, 58.8 µM; with UACC-257 melanoma, 61.9 µM; with CAKI-1 renal it was 66.2 µM. Moreover, the TGI is 55.3 µM in the assay with KM12 colon, more than 100 µM in the assay with MOLT-4 leukemia and 43.1 µM in the assay on HCT-116 colon.
On to `COc1cc2c(cc1C)NC(=O)/C2=C/c1c(C)nc2sc(C)cn12`, for which the GI50 was 34.3 µM with PC-3 prostate; 45.2 µM in the assay on SF-295 CNS; 45.5 µM in the assay on NCI/ADR-RES ovarian; 82.8 µM in the assay on NCI-H226 lung; 62.3 µM in the assay with UACC-257 melanoma; 52 µM with CAKI-1 renal. For the same compound, the GI50 was 40.7 µM with KM12 colon, 34.4 µM in the assay on MOLT-4 leukemia and 53.5 µM in the assay on HCT-116 colon. The TGI with PC-3 prostate, with SF-295 CNS, in the assay with NCI/ADR-RES ovarian, with NCI-H226 lung, in the assay with UACC-257 melanoma and with CAKI-1 renal was more than 100 µM throughout. Further, the TGI in the assay on KM12 colon, in the assay with MOLT-4 leukemia and in the assay on HCT-116 colon was more than 100 µM throughout.
For `O=C(O)C#Cc1ccc([N+](=O)[O-])cc1`, the TGI with PC-3 prostate, with SF-295 CNS, with NCI/ADR-RES ovarian, in the assay with NCI-H226 lung, in the assay with UACC-257 melanoma and with CAKI-1 renal was more than 100 µM each time. Besides, the TGI in the assay with KM12 colon, with MOLT-4 leukemia and in the assay with HCT-116 colon was more than 100 µM each time.
